Data: ChEMBL document CHEMBL4477261, “Design, synthesis and evaluation of the multidrug resistance-reversing activity of pyridine acid esters of podophyllotoxin in human leukemia cells” (Bioorg Med Chem Lett, 2016)
pIC50: −log10 of the molar value.

Columns and labels:
K562 [1] = assay: Antiproliferative activity against human K562 cells after 72 hrs by CCK8 assay; assay type: functional, cell-based; conditions: K562, 72 h
K562 [2] = assay: Resistance factor, ratio of IC50 for human K562/ADR cells to IC50 for human K562 cells; assay type: functional
K562/Adr = assay: Antiproliferative activity against human K562/ADR cells after 72 hrs by CCK8 assay; assay type: functional, cell-based

SMILES	pIC50 (K562 [1])	Ratio IC50 (K562 [2])	pIC50 (K562/Adr)
COc1cc([C@@H]2c3cc4c(cc3[C@H](OC(=O)c3cc(Cl)ccn3)[C@H]3COC(=O)[C@H]23)OCO4)cc(OC)c1OC	7.80	3.25	7.28
COc1cc([C@@H]2c3cc4c(cc3[C@H](OC(=O)c3ccncc3)[C@H]3COC(=O)[C@H]23)OCO4)cc(OC)c1OC [4-O-PODOPHYLLOTOXINYL-ISONICOTINATE]	7.96	4.363	7.32
COc1cc([C@@H]2c3cc4c(cc3[C@H](OC(=O)c3ccnc(Br)c3)[C@H]3COC(=O)[C@H]23)OCO4)cc(OC)c1OC	7.64	2.521	7.24
COc1cc([C@@H]2c3cc4c(cc3[C@H](OC(=O)c3ccnc(Cl)c3)[C@H]3COC(=O)[C@H]23)OCO4)cc(OC)c1OC	7.70	2.85	7.24
COc1cc([C@@H]2c3cc4c(cc3[C@H](OC(=O)c3cccnc3OC)[C@H]3COC(=O)[C@H]23)OCO4)cc(OC)c1OC	7.33	3.085	6.84
COc1cc([C@@H]2c3cc4c(cc3[C@H](OC(=O)c3cccnc3)[C@H]3COC(=O)[C@H]23)OCO4)cc(OC)c1OC [4-O-PODOPHYLLOTOXINYL-NICOTINATE]	7.48	4.151	6.86
